Reference: article PMC7210504 (Biochemistry, 2017)

What was measured:
ChuY [1] = target: T1, ChuY (Escherichia coli, UniProt Q8X5N4); settings: 30 μM NADPH; anaerobic, pH 8.1, 25 °C; substrate inhibition constant (kinetic)
ChuY [2] = target: T1, ChuY; settings: read-out: steady state parameters^a / Km ^app; 30 μM NADPH; anaerobic, pH 8.1, 25 °C
ChuY [3] = target: T1, ChuY; assay: biochemical
[4] = target: ChuY from Escherichia coli O157:H7 (anaerobilin reductase) (Escherichia coli O157:H7); assay: AUC

In the case of deuteroanaerobilin [DAB], the “equilibrium binding^b / Ki ^app” value (ChuY [1]) is reported as 14000 ± 2000 nM and the Km (ChuY [2]) is reported as 1.6 ± 0.3 µM.

In the case of `NC(=O)C1=CN([C@@H]2O[C@H](COP(=O)(O)OP(=O)(O)OC[C@H]3O[C@@H](n4cnc5c(N)ncnc54)[C@H](OP(=O)(O)O)[C@@H]3O)[C@@H](O)[C@H]2O)C=CC1` [NADPH], the Kd (ChuY [3]) is reported as 2700 ± 200 nM.

“ChuY from Escherichia coli O157:H7 (anaerobilin reductase) (enzyme)” was tested, and the percent of the c(s) distribution (species consistent with a dimer) [4] was 90% and the stoichiometry N [4] was 2.
